Laboratory results reported in patent publication US20260325542A1, “CANCER TARGETING COMPLEX, AND COMPOSITION COMPRISING SAME FOR PREVENTING OR TREATING CANCER” (EWHA UNIVERSITY - INDUSTRY COLLABORATION FOUNDATION, priority 2023, published 2026).
Each block holds one molecule with its values, some of them ahead of it.

Tests used:
[1] = Particle size by DLS before and after binding to albumin; assay type: physicochemical; conditions: BSA 200 μM and ECMal-PROTAC 140 μM in PBS, 1:1, 30 minutes
Protocol: A BSA solution (200 μM) diluted with PBS was co-incubated by mixing it with an ECMal-PROTAC aqueous solution (140 μM) of example 1 at a 1:1 volume ratio.

[2] = target: T1, BSA (bovine serum albumin) (Bos taurus, UniProt P02769); experiment: In vitro binding of ECMal-PROTAC to albumin (thiol-maleimide reaction), RP-HPLC; conditions: ARV-771 140 μM, BSA 200 μM; mixed for more than 60 minutes
T1 construct: free Cys34 thiol reacts with maleimide
Protocol: The binding rate of ECMal-PROTAC from example 1 and albumin was confirmed through RP-HPLC. Specifically, a BSA solution (200 μM) diluted with PBS was co-incubated by mixing it with an ECMal-PROTAC aqueous solution (140 μM) of example 1 at a 1:1 volume ratio. The culture was collected at incubation times of 0 minutes, 5 minutes, 30 minutes, and 60 minutes. It was quenched with mercaptoethanol, and HPLC spectra for each sample were acquired through concentration gradient of the eluent (ACN/H2O, 20/80 to 80/20 (v/v), 30 minutes).
To verify the albumin binding ability of the complex for cancer targeting (ECMal-PROTAC) of example 1, the mixture of BSA and the complex for cancer targeting (ECMal-PROTAC) was analyzed by LC-MS spectrum, and compared with the LC-MS spectrum of free BSA.
FIG. 4 is the HPLC spectrum of a mixture of BSA and the complex for cancer targeting (ECMal-PROTAC). According to this, it can be seen that BSA and the complex for cancer targeting (ECMal-PROTAC) rapidly bind through a thiol-maleimide click chemical reaction. To confirm the albumin binding ability of the complex for cancer targeting (ECMal-PROTAC) of example 1, bovine serum albumin (BSA), which has a structure similar to human serum albumin (HSA), was used for analysis.
At this time, the HPLC spectra were also analyzed for a co-incubation of ARV-771 (140 μM) and BSA solution (200 μM) mixed at a 1:1 volume ratio as a comparative example, and for the ECMal-PROTAC solution and BSA solution alone without any treatment of example 1.
From the HPLC results for the BSA and complex for cancer targeting (ECMal-PROTAC) mixture in Experimental Example 1 and the thiol-blocked BSA and complex for cancer targeting (ECMal-PROTAC) mixture in Experimental Example 2, the reduction in the HPLC peak area associated with the complex for cancer targeting (ECMal-PROTAC) was quantified.

[3] = target: T2, BRD4 (Mus musculus, UniProt Q9ESU6); experiment: Western blot, BRD4 degradation in 4T1 cells; assay type: cell-based; conditions: 24 hours
T2 construct: Western blot after PROTAC (ARV-771 release, VHL recruiting)
Protocol: (§1) Accordingly, Western blot analysis was performed to confirm the anticancer ability by evaluating the presence or absence of degradation of BRD4 and other related proteins (e.g., c-Myc and Bcl-2) when cancer cells were treated with the complex for cancer targeting (ECMal-PROTAC) of example 1. The complex for cancer targeting (ECMal-PROTAC) of example 1 and ARV-771 were prepared as samples.
(§2) First, 1×10^5 4T1 cells were dispensed into each well of a 6-well culture plate and cultured for 24 hours at 37° C. and 5% carbon dioxide atmosphere. The cell culture medium was supplemented with various concentrations of ARV-771 (0 to 10 μM) or the complex for cancer targeting (ECMal-PROTAC) of example 1 (0 to 10 μM), and cultured at 37° C. for 24 hours. After the culture was completed, the cells were washed 3 times with PBS, and lysed with a lysis buffer containing 1% […]. Cell debris from the recovered lysate was removed by centrifugation at 12,000 rpm for 25 minutes. After recovering the supernatant, the protein amount was measured using a BCA kit. The supernatant was loaded onto a 10% sodium dodecyl sulfate-polyacrylamide gel. Electrophoresis (SDS-PAGE) was performed, followed by blotting onto a polyvinylidene difluoride (PVDF) membrane. After blotting, the PVDF membrane was treated with 5% BSA-containing tris buffered saline containing 0.1% Tween 20 (TBS-T) for 2 hours to suppress the non-specific binding of IgG (immunoglobulin G). It was immediately exposed to a rabbit anti-mouse primary antibody (1,000:1). After treating at 4° C. for 24 hours, the PVDF membrane was washed 3 times with TBS-T and further incubated with an HRP-conjugated mouse anti-rabbit IgG antibody at room temperature for 1 hour. The immunoreactive bands on the PVDF membrane were analyzed through an ECL (enhanced chemiluminescence) system.

[4] = tested on: 4T1 cells; experiment: CCK-8 assay, toxicity on cancer cells; assay type: cell-based, mouse; conditions: CCK-8, 48 hours
Protocol: The toxicity of ARV-771 and ECMal-PROTAC on cancer cells was analyzed by the CCK-8 (cell counting kit-8) assay. 4T1 cells were dispensed into a 96-well culture plate at 3×10^3 cells per well. They were cultured for 24 hours at 37° C. and 5% carbon dioxide atmosphere. The cells were treated with different concentrations of ARV-771 (0.01 to 100 μM), the complex for cancer targeting (ECMal-PROTAC) of example 1 (0.01 to 100 μM), and the complex for cancer targeting (Mal-PROTAC) of example 2 (0.01 to 100 μM) separately, and cultured for 48 hours. After exposing each well to 10% CCK-8-containing culture media for 30 minutes, the viability of 4T1 cells treated with ARV-771 or 4T1 cells treated with ECMal-PROTAC or Mal-PROTAC was analyzed with a microplate reader. The change in cell viability according to the concentration of ARV-771 or ECMal-PROTAC or Mal-PROTAC was calculated using GraphPad Prism 8 software (GraphPad Software, San Diego, CA, USA) by fitting the IC50 (haf-maximal inhibitory concentration) value.

[5] = tested on: 4T1 tumor; experiment: In vivo anticancer efficacy, tumor size in 4T1 cancer animal model; parameters: species or system mouse; conditions: 10 mg/kg, tail vein, once every 3 days for 15 days
Protocol: 5-week-old female Balb/c and Balb/c nu/nu mice were purchased from NaraBio, Inc (Seoul, Republic of Korea). The mice underwent a 2-week acclimatization period before the example. The mice were raised under free-feeding conditions in a breeding room maintained at a temperature of 22±2° C. and humidity of 40-60% during the example. The light and dark cycle was regulated at 12-hour intervals. All examples were conducted in compliance with the relevant laws and institutional guidelines of the KIST Institutional Animal Care and Use Committee (IACUC; Approval No.: 2021-143).
Cancer animal models were prepared by inoculating 1×10^6 4T1 cells into the left thigh of the mice, and raising them until the tumor volume reached 50-80 mm^3.
For the preparation of the control group, the comparison group, and the example group, mice were randomly divided into groups of 5.
(§3) The control group was administered saline (10 mg/kg) once every 3 days for 15 days through the tail vein (total 4 administrations). The comparison group was administered ARV-771 (10 mg/kg) once every 3 days for 15 days through the tail vein (total 4 administrations). The example group was administered ECMal-PROTAC 10 mg/kg (wquiv. to ARV-771) of example 1 once every 3 days for 15 days through the tail vein (total 4 administrations).
(§4) Tumor size and body weight were measured every two days for the control group, the comparison group, and the example group.

[6] = Body weight and systemic side effects; assay type: in vivo, mouse; conditions: 10 mg/kg, i.v., once every 3 days for 15 days
Protocol: as §3, §4

[7] = tested on: organ tissue and cancer tissue; experiment: H&E histology of major organs and cancer tissue; assay type: in vivo, mouse; conditions: excised after 15 days
Protocol: as §3
The control group, the comparison group, and the example group were euthanized after 15 days, and major organs (heart, liver, lung, spleen, kidney) and cancer tissue were excised.
Furthermore, to analyze cancer cell apoptosis, TUNEL (terminal deoxynucleotidyl transferase dUTP nick end labeling) analysis was performed on cancer tissue excised from the control group, the comparison group, and the example group. Next, histological analysis was performed by H&E (hematoxylin & eosin) staining of the major organ tissues and cancer tissue of each excised group.
According to FIG. 29, major organ tissue and cancer tissue were excised from the control group, the comparison group, and the example group after 15 days. The excised organ tissue and cancer tissue were stained with H&E (hematoxylin & eosin). The H&E stained tissue was observed using a BX51 optical microscope (Olympus, Tokyo, Japan) and a TCS SP8 confocal laser microscope.

[8] = tested on: liver tissue; experiment: TUNEL analysis of liver tissue; assay type: in vivo, mouse; conditions: administered alone (comparison group)
[9] = tested on: BRD4 and c-Myc; experiment: Immunofluorescence of excised cancer tissue (DAPI, anti-BRD4, anti-c-Myc); assay type: in vivo, mouse; conditions: FIG. 33
Protocol: as §3
FIG. 33 is an image taken with a confocal laser scanning microscope after staining cancer tissue excised from the control group (Control, Saline), the comparison group (ARV-771, intravenous injection), and the example group (ECMal-PROTAC, intravenous injection) with DAPI, anti-BRD4, and anti-c-Myc.

[10] = tested on: c-Myc; experiment: Western blot, c-Myc level in 4T1 cells; assay type: cell-based, mouse; conditions: 0 to 10 μM, 24 hours
Protocol: as §1
as §2, with “After blotting, the PVDF membrane was treated with 5% BSA-containing tris buffered saline containing 0.1% Tween 20 (TBS-T) for 2 hours to suppress the non-specific binding of IgG (immunoglobulin G). It was immediately exposed to a rabbit anti-mouse primary antibody (1,000:1). After treating at 4° C. for 24 hours, the PVDF membrane was washed 3 times with TBS-T and further incubated with an HRP-conjugated mouse anti-rabbit IgG antibody at room temperature for 1 hour.” left out

[11] = tested on: Bcl-2; experiment: Western blot, Bcl-2 level in 4T1 cells; assay type: cell-based, mouse; conditions: 0 to 10 μM, 24 hours
Protocol: as §1
as §2, with “After blotting, the PVDF membrane was treated with 5% BSA-containing tris buffered saline containing 0.1% Tween 20 (TBS-T) for 2 hours to suppress the non-specific binding of IgG (immunoglobulin G). It was immediately exposed to a rabbit anti-mouse primary antibody (1,000:1). After treating at 4° C. for 24 hours, the PVDF membrane was washed 3 times with TBS-T and further incubated with an HRP-conjugated mouse anti-rabbit IgG antibody at room temperature for 1 hour.” left out

T1 sequence (P02769 25-607): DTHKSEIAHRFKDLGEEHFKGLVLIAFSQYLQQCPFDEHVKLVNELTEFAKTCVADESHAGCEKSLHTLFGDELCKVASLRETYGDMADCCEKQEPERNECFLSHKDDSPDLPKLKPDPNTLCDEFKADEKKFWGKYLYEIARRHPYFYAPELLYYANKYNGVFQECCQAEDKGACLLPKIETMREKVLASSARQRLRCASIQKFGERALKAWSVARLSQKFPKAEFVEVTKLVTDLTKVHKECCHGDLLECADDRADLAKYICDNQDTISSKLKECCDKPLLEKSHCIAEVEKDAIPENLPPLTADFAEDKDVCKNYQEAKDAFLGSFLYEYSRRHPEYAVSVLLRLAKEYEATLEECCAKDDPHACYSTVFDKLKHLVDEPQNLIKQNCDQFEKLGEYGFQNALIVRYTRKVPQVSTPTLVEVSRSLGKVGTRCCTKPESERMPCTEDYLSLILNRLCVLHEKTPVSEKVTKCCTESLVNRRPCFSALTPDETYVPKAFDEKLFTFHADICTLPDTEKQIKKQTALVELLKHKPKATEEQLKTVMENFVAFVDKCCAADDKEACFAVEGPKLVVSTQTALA

Molecule: BSA: bovine serum albumin; 98%
average particle size [1]: 5.43±1.42 nm

interaction with BSA [2]: did not form an interaction
DC50 ([3]; Western blot, read-out: DC50 (half-maximal degradation concentration), BRD4): 3.38 µM
Molecule: Cc1ncsc1-c1ccc([C@H](C)NC(=O)[C@@H]2C[C@@H](O)CN2C(=O)[C@@H](NC(=O)COCCCOCCNC(=O)C[C@@H]2N=C(c3ccc(Cl)cc3)c3c(sc(C)c3C)-n3c(C)nnc32)C(C)(C)C)cc1 [ARV-771, reference compound]
IC50 ([4]; Mus musculus, 4T1, FIGS. 15A and 15B, read-out: IC50 against cancer cells): 6.38 µM
cancer size vs control (saline) [5]: no significant difference
increase of cancer size from Day 0 [5]: 14.8 times
systemic side effects [6]: did not show serious systemic side effects
weight loss [6]: no significant weight loss was observed
damage in cancer tissue (H&E) [7]: did not observe serious damage
damage in organ tissue (H&E) ([7]; liver, lung, spleen, kidney, heart): did not observe serious damage
effect on normal tissue and cancer tissue [8]: affect both normal tissue and cancer tissue
BRD4 degradation in cancer tissue [9]: insufficient to induce apoptosis in cancer tissue

degradation of overexpressed BRD4 protein ([3]; 0 to 10 μM): induce BRD4 deficiency
Molecule: Cc1ncsc1-c1ccc([C@H](C)NC(=O)[C@@H]2C[C@@H](OC(=O)CNC(=O)CCOCCOCCNC(=O)CCN3C(=O)C=CC3=O)CN2C(=O)[C@@H](NC(=O)COCCCOCCNC(=O)C[C@@H]2N=C(c3ccc(Cl)cc3)c3c(sc(C)c3C)-n3c(C)nnc32)C(C)(C)C)cc1 [Mal-PROTAC]
c-Myc level [10]: reduced expression
Bcl-2 level [11]: reduced expression
IC50 compared to native ARV-771 [4]: slight increase in IC50 compared to native ARV-771
